# pIC50: −log10 of the molar value. Counter-ions that a name gives are not always drawn.
# Assays:
# [1] = biological target: CDK4/cyclin D1 (Homo sapiens, UniProt P11802); assay: CDK4/cyclin D1 Flashplate test in 96-well format; format: biochemical
# Protocol: 2. CDK4/cyclin D1 Protocol:
# Purification of the CDK4-HA/cyclin D1-(His)6 Complex by IMAC (Immobilized Metal Affinity Chromatography):
# Two recombinant baculoviruses bearing the human sequences coding, respectively, for CDK4-HA (C-terminal fusion with the hemaglutinin tag) and for cyclin D1-(His)6 are used to coinfect insect Sf9 cells. Sixty hours after the start of the coinfection, the cells are harvested by centrifugation and then frozen at −20° C. until the time of use.
# CDK4/cyclin D1 Flashplate Test in 96-Well Format
# A test in 96-well “Flashplate” plates coated with streptavidin is used to evaluate the inhibition of the CDK4/cyclin D1 kinase complex by the products of the invention. To perform this test, the biotinylated peptide substrate, a fragment of the pRb protein (biotinyl-[…]-amide) is dissolved at a concentration of 2 mM in kinase buffer (HEPES/NaOH 50 mM, NaCl 1 mM, MgCl2 5 mM, pH 7.5) in order to constitute a stock solution stored at −20° C. in the form of 110 μl aliquots. On the day of the experiment, an aliquot of this solution is thawed and diluted in kinase buffer containing 1 mM of dithiothreitol, and added to the buffer extemporaneously, in order to obtain a final peptide concentration of 2.571 μM. 70 μl of this solution are added to each well of the Flashplate in order to obtain a final substrate concentration of 1.8 μM during the enzymatic reaction, performed in a final volume of the reaction medium of 100 μl (cf. below). Intermediate dilutions of inhibitors (products of the invention) at various concentrations are prepared in DMSO from stock solutions at 10 mM in separate tubes. 1000 μM, 333.3 μM, 111.1 μM, 37.03 μM, 12.35 μM, 4.11 μM and 1.37 μM dilutions are thus prepared. 1 μl of each of these solutions (or 1 μl of DMSO for the controls) is then transferred into the wells of the test plate. Into each well are then added 19 μl of a solution of a mixture of adenosine triphosphate (ATP) and of ATPy^33P in the kinase buffer at a concentration of 5.26 μM of ATP total and 78.9 μCi/ml of ^33P. The enzymatic reaction is triggered by addition of 10 μl per well of a solution of CDK4/cyclin D1 at 250 nM in the kinase buffer containing 1 mM of dithiothreitol (or 10 μl of kinase buffer containing 1 mM of dithiothreitol for the reaction blanks).
# (§1) After addition of all the reagents, the test plate is incubated at 30° C. with orbital stirring at 650 rpm. After the incubation, the plate is washed three times with 300 μl per well of PBS (phosphate-buffered saline, pH=7.4, without calcium or magnesium, reference 10010-015, Gibco BRL). The incorporation of ^33P into the substrate peptide is quantified by scintillation counting using a Packard Topcount.NXT machine. The inhibitory activity of the products of the invention is evaluated by measuring the inhibitory concentration that allows a 50% reduction in the enzymatic activity (IC50).
# [2] = biological target: CDK2/cyclin E (Homo sapiens, UniProt P24941); assay: CDK2/cyclin E Flashplate test in 96-well format; format: biochemical; details: read-out: CDK2 IC50
# Protocol: 1. Protocol CDK2/cyclin E:
# Purification of the CDK2/cyclin E-(His)6 Complex by IMAC (Immobilized Metal Affinity Chromatography):
# Two recombinant baculoviruses bearing the human sequences coding, respectively, for CDK2 and cyclin E (the latter comprising a C-terminal hexahistidine tag) are used to coinfect insect Sf21 cells. Two to three days after the start of coinfection, the cells are harvested by centrifugation and then stored at −40° C. until the time of use. After thawing and mechanical lysis of the cells, the complex present in the lysis supernatant is purified by affinity chromatography on nickel (IMAC), and stored at −80° C.
# CDK2/cyclin E Flashplate Test in 96-Well Format
# A format in 96-well plates coated with streptavidin is used to test the activity of the compounds on the kinase activity of CDK2/cyclin E.
# To perform this test, the biotinylated peptide substrate, a fragment of the pRb protein (biotinyl-[…]-OH) is dissolved at a concentration of 1 mM in kinase buffer (HEPES/NaOH 50 mM, NaCl 1 mM, MgCl2 5 mM, pH 7.5) in order to constitute a stock solution stored at −20° C. in the form of 110 μl aliquots. On the day of the experiment, an aliquot of this solution is thawed and diluted in kinase buffer containing 1 mM of dithiothreitol, and added to the buffer extemporaneously, in order to obtain a concentration of 14.3 μM. 70 μl of this solution are added to each well of the Flashplate in order to obtain a final substrate concentration of 10 μM during the enzymatic reaction, performed in a final volume of the reaction medium of 100 μl (cf. below).
# Intermediate dilutions of inhibitors (products of the invention) at various concentrations are prepared in DMSO from stock solutions at 10 mM in separate tubes. 1000 μM, 333.3 μM, 111.1 μM, 37.03 μM, 12.35 μM, 4.11 μM and 1.37 μM dilutions are thus prepared. 1 μl of each of these solutions (or 1 μl of DMSO for the controls) is transferred into the wells of the test plate.
# Into each well are then added 19 μl of a solution of a mixture of adenosine triphosphate (ATP) and of ATPy^33P in the kinase buffer at a concentration of 5.26 μM of ATP total and 52.6 μCi/ml of ^33P. The enzymatic reaction is triggered by addition of 10 μl per well of a solution of CDK2/cyclin E at 200 nM in the kinase buffer containing 1 mM of dithiothreitol (or 10 μl of kinase buffer containing 1 mM of dithiothreitol for the reaction blanks).
# After addition of all the reagents, the plate is incubated at 30° C. with orbital stirring at 650 rpm.
# as §1, with “When” for “After addition of all”, “incubation” for “reagents, the test plate”, “complete,” for “incubated at 30° C. with orbital stirring at 650 rpm. After the incubation,”, “the” for “the substrate”
# [3] = tested on: HeLa; assay: HeLa proliferation; format: cell-based; details: Homo sapiens, read-out: HeLa proliferation EC50 (nM) DG
# Chain of CDK4/cyclin D1 (P11802 whole entry): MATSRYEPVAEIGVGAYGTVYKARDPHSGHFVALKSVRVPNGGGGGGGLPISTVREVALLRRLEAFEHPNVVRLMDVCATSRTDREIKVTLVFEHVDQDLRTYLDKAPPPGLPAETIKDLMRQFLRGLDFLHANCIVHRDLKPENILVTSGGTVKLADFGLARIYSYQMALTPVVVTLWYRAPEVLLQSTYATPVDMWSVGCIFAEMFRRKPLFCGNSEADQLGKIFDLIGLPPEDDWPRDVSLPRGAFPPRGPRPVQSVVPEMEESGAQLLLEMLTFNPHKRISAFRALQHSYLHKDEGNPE
# Chain of CDK4/cyclin D1 (P24385 whole entry partner): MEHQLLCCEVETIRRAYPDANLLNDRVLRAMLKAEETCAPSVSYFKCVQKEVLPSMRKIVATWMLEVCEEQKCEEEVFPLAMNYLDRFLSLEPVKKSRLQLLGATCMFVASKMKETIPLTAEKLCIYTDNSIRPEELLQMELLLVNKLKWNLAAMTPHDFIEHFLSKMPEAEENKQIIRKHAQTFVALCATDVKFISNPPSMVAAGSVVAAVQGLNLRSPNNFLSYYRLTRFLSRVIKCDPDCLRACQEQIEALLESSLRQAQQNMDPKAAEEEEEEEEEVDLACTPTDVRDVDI
pIC50 [1],pIC50 [2],EC50 [3],SMILES
5.39,5.23,9960 nM,"CCNCCNc1ccc(S(=O)(=O)Oc2ccc3nc(NC(=O)CCC4CCNCC4)sc3c2)cc1 [Example 25b, 4-(2-Ethylaminoethyl-amino)-benzenesulfonic acid 2-(3-piperid-4-yl-propionyl-amino)-benzo-thiazol-6-yl ester hydrochloride]"
6.24,6.59,1830 nM,"CC(C)CNc1ccc(S(=O)(=O)Oc2ccc3nc(NC(=O)CCC4CCNCC4)sc3c2)cc1 [Example 29a, 4-Isobutylaminobenzenesulfonic acid 2-(3-piperid-4-ylpropionyl-amino)benzothiazol-6-yl ester hydrochloride]"
6.15,7.16,5360 nM,"CC(C)(O)CNc1ccc(S(=O)(=O)Oc2ccc3nc(NC(=O)CCCCCCCN)sc3c2)cc1 [Example 22d, 4-(2-Hydroxy-2-methyl-propylamino)benzene-sulfonic acid 2-(8-amino-octanoylamino)benzo-thiazol-6-yl ester hydro-chloride]"
5.41,5.58,> 12500 nM,"O=C(CCC1CCNCC1)Nc1nc2ccc(OS(=O)(=O)c3ccc(NCCNCCO)cc3)cc2s1 [Example 25c, 4-[2-(2-Hydroxyethyl-amino)-ethylamino] benzenesulfonic acid 2-(3-piperid-4-ylpropionyl-amino)benzothiazol-6-yl ester hydrochloride]"
5.77,6.44,> 12500 nM,"O=C(CCC1CCNCC1)Nc1nc2ccc(OS(=O)(=O)c3ccc(NCCCn4ccnc4)cc3)cc2s1 [Example 25a, 4-(3-Imidazol-1-ylpropyl-amino)benzenesulfonic acid 2-(3-piperid-4-ylpropionyl-amino)benzothiazol-6-yl ester hydrochloride]"

# The next lines start with the compound.
SMILES,pIC50 [1],pIC50 [2],EC50 [3]
"O=C(Nc1nc2ccc(OS(=O)(=O)c3ccc(F)cc3)cc2s1)C1CC1 [Example 7, 4-fluorobenzenesulfonic acid 2-(cyclopropane-carbonylamino)benzothiazol-6-yl ester]",< 5.00,6.91,1580 nM
"CCCC(=O)Nc1nc2ccc(OS(=O)(=O)c3ccc(NCCN(C(C)C)C(C)C)cc3)cc2s1 [Example 79, 4-(2-diisopropylaminoethylamino)benzenesulfonic acid 2-butyrylaminobenzothiazol-6-yl ester hydrochloride]",7.15,7.37,140 nM
"CC(C)N(CCNc1ccc(S(=O)(=O)Oc2ccc3nc(NC(=O)CCCCCCN)sc3c2)cc1)C(C)C [Example 52, 4-(2-diisopropylaminoethylamino)benzenesulfonic acid 2-(7-aminoheptanoylamino)benzothiazol-6-yl ester hydrochloride]",6.72,6.95,2950 nM
"CC(C)N(CCNc1ccc(S(=O)(=O)Oc2ccc3nc(NC(=O)CCCCCCCN)sc3c2)cc1)C(C)C [Example 40, 4-(2-diisopropylaminoethylamino)benzenesulfonic acid 2-(8-aminooctanoylamino)benzothiazol-6-yl ester]",6.60,6.68,7550 nM
"O=C(Nc1nc2ccc(OS(=O)(=O)c3ccc(NCCCCn4cnc(-c5cccnc5)c4)cc3)cc2s1)C1CC1 [Example 13, 4-[4-(4-pyrid-3-ylimidazol-1-yl)butylamino]-benzenesulfonic 2-(cyclopropanecarbonylamino)benzothiazol-6-yl ester]",5.16,6.17,841 nM
"CC(C)NCCNc1ccc(S(=O)(=O)Oc2ccc3nc(NC(=O)CCC4CCNCC4)sc3c2)cc1 [Example 24, 4-(2-Isopropylaminoethylamino)benzenesulfonic acid 2-(3-piperid-4-ylpropionylamino)benzothiazol-6-yl ester hydrochloride]",5.78,6.06,> 12500 nM
"CC(C)NCCNc1ccc(S(=O)(=O)Oc2ccc3nc(NC(=O)CCCCCCCN)sc3c2)cc1 [Example 21, 4-(2-isopropylaminoethylamino)benzenesulfonic acid 2-(8-aminooctanoylamino)benzothiazol-6-yl ester hydrochloride]",6.27,6.64,2460 nM
"COCC(=O)Nc1nc2ccc(OS(=O)(=O)c3ccc(NCCNC(C)C)cc3)cc2s1 [Example 67, 4-(2-isopropylaminoethylamino)benzenesulfonic acid 2-(2-methoxyacetylamino)benzothiazol-6-yl ester]",5.91,6.53,> 12500 nM
"CC(C)NCCNc1ccc(S(=O)(=O)Oc2ccc3nc(NC(=O)C4CCC4)sc3c2)cc1 [Example 77, 4-(2-isopropylaminoethylamino)benzenesulfonic acid (2-cyclobutanecarbonylamino)benzothiazol-6-yl ester; compound with trifluoroacetic acid]",5.99,6.38,179 nM
"CCCC(=O)Nc1nc2ccc(OS(=O)(=O)c3ccc(NCC(C)(C)O)cc3)cc2s1 [Example 80, 4-(2-hydroxy-2-methylpropylamino)benzene-sulfonic acid 2-butyrylaminobenzothiazol-6-yl ester hydrochloride]",6.17,7.24,408 nM
"O=C(Nc1nc2ccc(OS(=O)(=O)c3ccc(NC4CCCC4)cc3)cc2s1)C1CC1 [Example 8, 4-cyclopentylaminobenzenesulfonic 2-(cyclo-propanecarbonylamino)benzothiazol-6-yl ester]",6.05,7.07,631 nM
"CC(C)N(CCNc1ccc(S(=O)(=O)Oc2ccc3nc(NC(=O)CCCCCN)sc3c2)cc1)C(C)C [Example 49, 4-(2-diisopropylaminoethylamino)benzenesulfonic acid 2-(6-aminohexanoylamino)benzothiazol-6-yl ester hydrochloride]",6.48,6.74,2700 nM
